Assay: Solubility of monomers and BTT in 1:1 mixes of acetonitrile and a solvent
Format: physicochemical
Description: The BTT (MW 192.2., water content ≦75 ppm) was supplied by emp Biotech GmbH (catalog no. NC-0101-1K, charge/lot no. 050904). The dT (MW 744.83), dG^ibu (MW 839.92), dA^bz (MW 857.93), dC^bz (MW 833.93) monomers were supplied by Proligo. The acetonitrile (MeCN) has a viscosity of 0.345 cP at 25° C. and a dipole moment of 3.92 D.
74.5 mg (100 μmol) of dT monomer was weighed out into each of 7 screw-topped 10 ml vials. 84 mg (100 μmol) of dG^ibu monomer was weighed out into each of 7 screw-topped 10 ml vials. 86 mg (100 μmol) of dA^bz monomer was weighed out into each of 7 screw-topped 10 ml vials. 83 mg (100 μmol) of dC^bz monomer was weighed out into each of 7 screw-topped 10 ml vials. 228 mg (1.2 mmol) of BTT was weighed out into each of 7 screw-topped 10 ml vials.
Six different solvent mixes were prepared by mixing 10 ml of dry acetonitrile with 10 ml of one of the 6 different solvents listed above in separate dry bottles under argon.
To each separate vial of T monomer was added 1 ml of one of the 6 different solvent mixes or pure acetonitrile. The vials were quickly closed and agitated gently. This was repeated with the vials of dG, dA and dC monomers.
To each separate vial of BTT was added 4 ml of one of the 6 solvent mixes.

dissolution of BTT (0.3 M, solvent mixes, all cases except HFIP/MeCN): practically instantaneous
solubility of BTT (at 0.3 M in all 5 mixes (acetonitrile 1:1 with NMP, DMA, TMU, DMSO, sulfolane)): soluble
dissolution of BTT (pure acetonitrile, compared with the solvent mixes, gentle warming required for rapid dissolution): not as fast
Structure (SMILES): c1ccc(CSc2nnn[nH]2)cc1 [BTT, 5-benzylthiotetrazole]

Source: patent US20080139797A1, “OLIGONUCLEOTIDES CONTAINING HIGH CONCENTRATIONS OF GUANINE MONOMERS” (INTEGRATED DNA TECHNOLOGIES, INC., priority 2006, published 2008)
